Measured values reported in ChEMBL document CHEMBL4049442, “Design, Synthesis, and Biological Evaluation of Dimorpholine Substituted Thienopyrimidines as Potential Class I PI3K/mTOR Dual Inhibitors” (J Med Chem, 2017).
Active and inactive are the calls of the source. The rule behind the calls is not given here.

Key:
[1] = tested on: U-87 MG; test: Antitumor activity against human U87MG cells xenografted in BALB/c nude mouse assessed as tumor growth inhibition administered po for 18 days measured every 3 days during compound dosing; type: functional, organism-based; details: U-87MG ATCC
[2] = molecular target: PI3-kinase p110-alpha/p85-alpha (Homo sapiens, UniProt P42336); test: Inhibition of full length recombinant human N-terminal His-tagged PI3K p110alpha/p85alpha expressed in baculovirus using PIP2 as substrate after 1 hr by kinase-glo luminescence assay
Chain of PI3-kinase p110-alpha/p85-alpha (P27986 whole entry): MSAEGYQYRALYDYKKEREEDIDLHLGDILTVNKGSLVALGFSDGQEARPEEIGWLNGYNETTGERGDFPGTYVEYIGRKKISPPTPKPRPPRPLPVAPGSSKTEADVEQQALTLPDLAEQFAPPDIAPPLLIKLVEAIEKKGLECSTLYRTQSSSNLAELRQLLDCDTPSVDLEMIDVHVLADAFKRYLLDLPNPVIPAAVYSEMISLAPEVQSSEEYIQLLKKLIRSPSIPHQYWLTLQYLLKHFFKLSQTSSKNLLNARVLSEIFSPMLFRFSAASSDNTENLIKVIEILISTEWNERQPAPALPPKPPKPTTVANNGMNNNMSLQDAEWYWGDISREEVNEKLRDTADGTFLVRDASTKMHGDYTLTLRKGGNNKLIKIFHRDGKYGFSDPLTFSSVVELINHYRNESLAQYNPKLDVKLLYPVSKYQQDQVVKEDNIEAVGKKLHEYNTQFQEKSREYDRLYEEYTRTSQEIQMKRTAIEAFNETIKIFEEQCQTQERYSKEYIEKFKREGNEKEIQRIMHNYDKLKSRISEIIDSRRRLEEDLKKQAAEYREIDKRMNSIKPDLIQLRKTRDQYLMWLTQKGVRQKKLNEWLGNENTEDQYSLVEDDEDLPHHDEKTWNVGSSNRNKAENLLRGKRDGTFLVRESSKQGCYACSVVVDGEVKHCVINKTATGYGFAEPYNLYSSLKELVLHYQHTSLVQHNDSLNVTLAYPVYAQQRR
Chain of PI3-kinase p110-alpha/p85-alpha (P42336 whole entry): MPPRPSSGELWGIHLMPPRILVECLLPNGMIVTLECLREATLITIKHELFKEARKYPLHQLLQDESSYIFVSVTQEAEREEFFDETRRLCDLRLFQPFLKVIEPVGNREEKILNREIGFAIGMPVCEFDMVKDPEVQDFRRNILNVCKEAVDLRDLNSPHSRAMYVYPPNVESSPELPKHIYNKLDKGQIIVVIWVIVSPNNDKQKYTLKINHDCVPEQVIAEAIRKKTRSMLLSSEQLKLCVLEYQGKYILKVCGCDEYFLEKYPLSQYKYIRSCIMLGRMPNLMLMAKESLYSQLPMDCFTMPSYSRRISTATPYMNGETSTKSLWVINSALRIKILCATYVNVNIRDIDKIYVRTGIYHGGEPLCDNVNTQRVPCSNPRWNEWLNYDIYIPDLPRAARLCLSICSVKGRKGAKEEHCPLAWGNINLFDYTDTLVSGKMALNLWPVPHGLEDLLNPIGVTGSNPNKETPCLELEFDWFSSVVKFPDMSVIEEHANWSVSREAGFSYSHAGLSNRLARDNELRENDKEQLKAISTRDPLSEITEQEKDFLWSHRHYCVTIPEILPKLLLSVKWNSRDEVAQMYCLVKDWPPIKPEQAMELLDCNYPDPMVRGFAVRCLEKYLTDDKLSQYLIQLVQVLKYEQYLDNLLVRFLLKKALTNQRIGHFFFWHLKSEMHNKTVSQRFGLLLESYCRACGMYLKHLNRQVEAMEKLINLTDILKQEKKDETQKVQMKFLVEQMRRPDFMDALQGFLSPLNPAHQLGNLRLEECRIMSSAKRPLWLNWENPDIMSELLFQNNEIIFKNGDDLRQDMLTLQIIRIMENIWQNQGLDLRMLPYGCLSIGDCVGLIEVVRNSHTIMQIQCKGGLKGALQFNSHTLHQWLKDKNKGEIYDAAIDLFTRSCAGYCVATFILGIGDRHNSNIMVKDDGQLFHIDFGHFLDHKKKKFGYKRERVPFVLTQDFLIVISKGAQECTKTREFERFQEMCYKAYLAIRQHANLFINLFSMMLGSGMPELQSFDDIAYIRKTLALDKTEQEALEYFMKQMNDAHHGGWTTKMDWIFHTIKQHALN

[3] = molecular target: Serine/threonine-protein kinase mTOR (Homo sapiens, UniProt P42345); test: Inhibition of recombinant human N-terminal FLAG-tagged mTOR (1362 to end residues) expressed in baculovirus infected Sf21 insect cells assessed as reduction in ULight-4E-BP1 phosphorylation after 30 mins by lance ultra assay
[4] = molecular target: Phosphatidylinositol 4,5-bisphosphate 3-kinase catalytic subunit gamma isoform (Homo sapiens, UniProt P48736); test: Inhibition of recombinant human His-tagged PI3K p110gamma expressed in baculovirus using PIP2 as substrate after 1 hr by kinase-glo luminescence assay
Chain of Phosphatidylinositol 4,5-bisphosphate 3-kinase catalytic subunit gamma isoform (P48736 whole entry, canonical isoform): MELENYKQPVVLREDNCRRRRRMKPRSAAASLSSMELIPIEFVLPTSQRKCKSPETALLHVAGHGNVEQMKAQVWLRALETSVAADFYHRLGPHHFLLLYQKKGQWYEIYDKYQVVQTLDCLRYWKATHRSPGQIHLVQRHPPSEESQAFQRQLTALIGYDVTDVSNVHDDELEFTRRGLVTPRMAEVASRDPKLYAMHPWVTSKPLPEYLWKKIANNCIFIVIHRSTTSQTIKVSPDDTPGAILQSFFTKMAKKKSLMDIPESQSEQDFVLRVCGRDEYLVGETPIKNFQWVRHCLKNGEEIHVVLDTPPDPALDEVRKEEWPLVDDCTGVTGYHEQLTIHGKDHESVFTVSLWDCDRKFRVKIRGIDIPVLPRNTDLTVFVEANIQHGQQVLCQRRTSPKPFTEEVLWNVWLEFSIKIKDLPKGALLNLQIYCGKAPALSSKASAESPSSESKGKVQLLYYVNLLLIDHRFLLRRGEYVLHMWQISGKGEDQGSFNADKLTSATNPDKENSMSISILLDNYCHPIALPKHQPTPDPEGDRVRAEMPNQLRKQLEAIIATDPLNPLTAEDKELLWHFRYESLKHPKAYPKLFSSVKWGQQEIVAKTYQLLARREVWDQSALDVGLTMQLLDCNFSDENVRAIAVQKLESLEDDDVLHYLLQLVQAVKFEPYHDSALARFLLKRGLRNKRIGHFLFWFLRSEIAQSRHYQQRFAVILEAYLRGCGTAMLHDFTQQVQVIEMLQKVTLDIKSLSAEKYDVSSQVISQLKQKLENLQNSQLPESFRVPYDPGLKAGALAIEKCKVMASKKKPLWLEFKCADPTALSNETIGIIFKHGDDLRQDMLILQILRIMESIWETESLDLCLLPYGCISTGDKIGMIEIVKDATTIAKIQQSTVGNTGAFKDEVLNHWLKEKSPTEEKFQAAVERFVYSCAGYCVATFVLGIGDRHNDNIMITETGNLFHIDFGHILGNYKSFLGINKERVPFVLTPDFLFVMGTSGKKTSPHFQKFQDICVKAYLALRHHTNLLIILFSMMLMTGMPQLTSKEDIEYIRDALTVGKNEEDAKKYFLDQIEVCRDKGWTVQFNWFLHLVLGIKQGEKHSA

[5] = species: Homo sapiens; test: Inhibition of PI3K in human SKOV3 cells assessed as reduction in Akt phosphorylation at S473 after 24 hrs by Western blot analysis; type: cell-based
[6] = species: Homo sapiens; test: Inhibition of PI3K in human SKOV3 cells assessed as reduction in Akt phosphorylation at T308 after 24 hrs by Western blot analysis; type: cell-based
[7] = species: Homo sapiens; test: Inhibition of PI3K in human SKOV3 cells assessed as reduction in S6 phosphorylation after 24 hrs by Western blot analysis; type: cell-based
[8] = species: Homo sapiens; test: Inhibition of PI3K in human U87MG cells assessed as reduction in Akt phosphorylation at S473 after 24 hrs by Western blot analysis; type: cell-based
[9] = species: Homo sapiens; test: Inhibition of PI3K in human U87MG cells assessed as reduction in Akt phosphorylation at T308 after 24 hrs by Western blot analysis; type: cell-based
[10] = species: Homo sapiens; test: Inhibition of PI3K in human U87MG cells assessed as reduction in S6 phosphorylation after 24 hrs by Western blot analysis; type: cell-based
[11] = Clearance in Sprague-Dawley rat at 2 mg/kg, iv by LC-MS/MS analysis; type: ADME, organism-based; details: in vivo
[12] = Volume of distribution at steady state in Sprague-Dawley rat at 2 mg/kg, iv by LC-MS/MS analysis; type: ADME, organism-based; details: in vivo, read-out: Vdss
[13] = Cmax in Sprague-Dawley rat at 10 mg/kg, po by LC-MS/MS analysis; type: ADME, organism-based; set-up: dose 10 mg/kg, route oral; details: in vivo
[14] = AUC in Sprague-Dawley rat at 10 mg/kg, po by LC-MS/MS analysis; type: ADME, organism-based; details: in vivo
[15] = Oral bioavailability in Sprague-Dawley rat at 10 mg/kg by LC-MS/MS analysis; type: ADME, organism-based; details: in vivo
[16] = tested on: SK-OV-3; test: Antitumor activity against human SKOV3 cells xenografted in BALB/c nude mouse assessed as tumor growth inhibition administered via po for 24 days measured every 3 days during compound dosing; type: functional, organism-based
[17] = tested on: SK-OV-3; test: Antitumor activity against human SKOV3 cells xenografted in BALB/c nude mouse assessed as tumor growth inhibition at 60 mg/kg/day, po for 24 days measured every 3 days during compound dosing relative to control; type: functional; details: SK-OV-3, po, read-out: TGI
[18] = tested on: SK-OV-3; test: Antitumor activity against human SKOV3 cells xenografted in BALB/c nude mouse assessed as tumor growth inhibition at 30 mg/kg/day, po for 24 days measured every 3 days during compound dosing relative to control; type: functional; details: SK-OV-3, po, read-out: TGI
[19] = tested on: SK-OV-3; test: Antitumor activity against human SKOV3 cells xenografted in BALB/c nude mouse assessed as tumor growth inhibition at 15 mg/kg/day, po for 24 days measured every 3 days during compound dosing relative to control; type: functional; details: SK-OV-3, po, read-out: TGI
[20] = tested on: U-87 MG; test: Antitumor activity against human U87MG cells xenografted in BALB/c nude mouse assessed as tumor growth inhibition at 40 mg/kg/day, po for 18 days measured every 3 days during compound dosing relative to control; type: functional, U-87MG ATCC; details: read-out: TGI
[21] = tested on: U-87 MG; test: Antitumor activity against human U87MG cells xenografted in BALB/c nude mouse assessed as tumor growth inhibition at 20 mg/kg/day, po for 18 days measured every 3 days during compound dosing relative to control; type: functional, U-87MG ATCC; details: read-out: TGI
[22] = tested on: Mus musculus; test: Toxicity in BALB/c nude mouse xenografted with human SKOV3 cells assessed as body weight loss at 15 to 60 mg/kg/day, po for 24 days measured every 3 days during compound dosing; type: organism-based; details: in vivo
[23] = tested on: Mus musculus; test: Toxicity in BALB/c nude mouse xenografted with human U87MG cells assessed as body weight loss at 20 to 40 mg/kg/day, po for 18 days measured every 3 days during compound dosing; type: organism-based; details: in vivo
[24] = tested on: Mus musculus; test: In vivo inhibition of PI3K in BALB/c nude mouse xenografted with human SKOV3 cells assessed as reduction in Akt phosphorylation at S473 in tumors administered po for 24 days by immunohistochemical analysis; type: functional, organism-based
[25] = tested on: Mus musculus; test: In vivo inhibition of PI3K in BALB/c nude mouse xenografted with human SKOV3 cells assessed as reduction in S6RP phosphorylation at Ser235/236 administered po for 24 days in tumors by immunohistochemical analysis; type: functional, organism-based
[26] = tested on: SK-OV-3; test: Antitumor activity against human SKOV3 cells xenografted in BALB/c nude mouse assessed as decrease in cell proliferation administered po for 24 days by Ki67 staining based assay; type: functional, organism-based
[27] = tested on: SK-OV-3; test: Antitumor activity against human SKOV3 cells xenografted in BALB/c nude mouse assessed as TUNEL positive cells at 15 to 60 mg/kg/day, po for 24 days; type: functional, organism-based
[28] = tested on: PC-3; test: cells; details: Homo sapiens, PC-3, 72 h
[29] = tested on: LNCaP; test: cells; details: Homo sapiens, 72 h
[30] = tested on: U-87 MG; test: cells; details: Homo sapiens, 72 h
[31] = tested on: SK-OV-3; test: cells; details: Homo sapiens, SK-OV-3, 72 h
[32] = Half-life in Sprague-Dawley rat at 2 mg/kg, iv by LC-MS/MS analysis; details: in vivo
[33] = molecular target: Phosphatidylinositol 4,5-bisphosphate 3-kinase catalytic subunit beta isoform (Homo sapiens, UniProt P42338); test: Inhibition of PI3Kbeta (unknown origin) using PIP2 as substrate after 1 hr by ADP-Glo luminescence assay
Chain of Phosphatidylinositol 4,5-bisphosphate 3-kinase catalytic subunit beta isoform (P42338 whole entry, canonical isoform): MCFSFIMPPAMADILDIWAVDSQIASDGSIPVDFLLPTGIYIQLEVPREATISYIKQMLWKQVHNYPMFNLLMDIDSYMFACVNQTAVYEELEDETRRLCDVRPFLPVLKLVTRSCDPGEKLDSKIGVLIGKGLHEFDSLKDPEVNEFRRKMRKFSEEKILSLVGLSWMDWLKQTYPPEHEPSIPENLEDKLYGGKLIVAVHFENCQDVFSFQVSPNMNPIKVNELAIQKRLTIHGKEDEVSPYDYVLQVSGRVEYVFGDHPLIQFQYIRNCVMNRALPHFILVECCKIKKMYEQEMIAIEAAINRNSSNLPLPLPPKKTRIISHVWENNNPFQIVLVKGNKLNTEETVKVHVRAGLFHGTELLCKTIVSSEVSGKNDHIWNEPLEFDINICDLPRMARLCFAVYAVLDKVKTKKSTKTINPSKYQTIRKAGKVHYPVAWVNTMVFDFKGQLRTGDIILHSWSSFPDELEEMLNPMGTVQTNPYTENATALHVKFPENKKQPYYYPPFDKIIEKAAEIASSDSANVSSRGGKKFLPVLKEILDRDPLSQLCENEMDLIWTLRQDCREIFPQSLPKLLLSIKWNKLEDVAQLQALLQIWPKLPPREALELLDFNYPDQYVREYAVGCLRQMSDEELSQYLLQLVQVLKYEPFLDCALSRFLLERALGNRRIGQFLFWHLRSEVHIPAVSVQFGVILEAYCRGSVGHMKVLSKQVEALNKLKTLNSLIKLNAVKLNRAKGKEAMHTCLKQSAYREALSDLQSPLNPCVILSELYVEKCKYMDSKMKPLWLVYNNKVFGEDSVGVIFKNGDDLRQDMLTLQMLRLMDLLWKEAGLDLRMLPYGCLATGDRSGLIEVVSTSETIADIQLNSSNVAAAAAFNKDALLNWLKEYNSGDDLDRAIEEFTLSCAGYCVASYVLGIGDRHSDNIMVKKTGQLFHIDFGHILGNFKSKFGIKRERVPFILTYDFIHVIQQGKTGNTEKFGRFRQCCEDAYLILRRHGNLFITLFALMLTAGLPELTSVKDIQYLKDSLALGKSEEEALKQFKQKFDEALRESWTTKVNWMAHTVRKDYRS

[34] = molecular target: PI3-kinase p110-delta/p85-alpha (Homo sapiens, UniProt O00329); test: Inhibition of recombinant full length human N-terminal His6-tagged PI3K p110delta/p85alpha expressed in baculovirus infected Sf21 cells using PIP2 as substrate after 2 hrs by kinase-glo luminescence assay
Chain of PI3-kinase p110-delta/p85-alpha (P27986 whole entry): as the sequence (P27986 whole entry) above
Chain of PI3-kinase p110-delta/p85-alpha (O00329 whole entry): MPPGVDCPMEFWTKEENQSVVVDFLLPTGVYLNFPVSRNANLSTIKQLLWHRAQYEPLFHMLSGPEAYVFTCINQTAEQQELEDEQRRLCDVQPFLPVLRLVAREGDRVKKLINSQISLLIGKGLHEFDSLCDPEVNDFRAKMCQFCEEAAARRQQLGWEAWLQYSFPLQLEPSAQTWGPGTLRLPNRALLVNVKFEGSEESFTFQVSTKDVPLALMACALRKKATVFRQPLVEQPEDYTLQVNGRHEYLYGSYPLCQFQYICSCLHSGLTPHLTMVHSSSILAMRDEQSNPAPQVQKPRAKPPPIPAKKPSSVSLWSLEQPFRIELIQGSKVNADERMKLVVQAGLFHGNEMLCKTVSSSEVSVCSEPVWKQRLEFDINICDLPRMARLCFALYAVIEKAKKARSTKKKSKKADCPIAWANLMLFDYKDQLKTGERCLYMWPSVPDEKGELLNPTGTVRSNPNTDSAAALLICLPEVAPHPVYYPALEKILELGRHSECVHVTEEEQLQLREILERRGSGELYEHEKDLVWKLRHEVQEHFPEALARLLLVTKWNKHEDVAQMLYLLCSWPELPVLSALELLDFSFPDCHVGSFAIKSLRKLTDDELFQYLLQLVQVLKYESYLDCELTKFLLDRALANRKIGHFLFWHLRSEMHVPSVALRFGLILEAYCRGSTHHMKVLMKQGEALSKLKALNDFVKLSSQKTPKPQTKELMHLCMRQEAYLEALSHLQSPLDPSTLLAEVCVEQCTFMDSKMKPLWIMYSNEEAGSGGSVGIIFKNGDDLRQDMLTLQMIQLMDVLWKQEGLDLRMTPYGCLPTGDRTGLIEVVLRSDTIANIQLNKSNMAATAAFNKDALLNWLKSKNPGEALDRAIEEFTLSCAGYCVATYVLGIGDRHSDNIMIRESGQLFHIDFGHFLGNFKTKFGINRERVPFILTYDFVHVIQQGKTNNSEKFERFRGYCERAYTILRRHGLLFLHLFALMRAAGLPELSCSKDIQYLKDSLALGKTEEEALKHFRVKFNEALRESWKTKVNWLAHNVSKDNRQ

With `C[C@@H]1CN(c2nc(N3CCOCC3)c3sc(-c4ccn[nH]4)cc3n2)C[C@H](C)O1` the TGI [1] was “Dose-dependent effect”, the IC50 [2] was 15 nM and the IC50 [3] was 16 nM. The IC50 [4] was 75 nM, the inhibition [5] was “Dose-dependent effect” and the inhibition [6] was “Dose-dependent effect”. The inhibition [7] was “Dose-dependent effect”, the inhibition [8] was “Dose-dependent effect” and the inhibition [9] was “Dose-dependent effect”. For the same compound, the inhibition [10] was “Dose-dependent effect”, the clearance [11] was 29 mL/min/kg and the Vd [12] was 4.4 L/kg. The Cmax [13] was 1400 nM, the AUC [14] was 5.2 µM·h and the bioavailability [15] was 41%. The TGI [16] was “Dose-dependent effect”, the inhibition in vivo at 60 mg/kg/day [17] was 89.6% and the inhibition in vivo at 30 mg/kg/day [18] was 75.9%. For the same compound, the inhibition in vivo at 15 mg/kg/day [19] was 48.5%, the inhibition in vivo at 40 mg/kg/day [20] was 81.2% and the inhibition in vivo at 20 mg/kg/day [21] was 69.2%. The Activity [22] was “Non-Toxic”, the Activity [23] was “Non-Toxic” and the inhibition [24] was “Dose-dependent effect”. For the same compound, the inhibition [25] was “Dose-dependent effect”, the Activity [26] was “Dose-dependent effect” and the Activity [27] was “Active”. For the same compound, the IC50 [28] was 446 nM, the IC50 [29] was 210 nM and the IC50 [30] was 430 nM. For the same compound, the IC50 [31] was 504 nM, the half-life [32] was 1.5 h and the IC50 [33] was 175 nM. It also gave an IC50 [34] of 10 nM.
